Measured values as given in article PMC5936891, “A focused library synthesis and cytotoxicity of quinones derived from the natural product bolinaquinone” (Royal Society Open Science, 2018).

How the values were obtained:
[1] = test system: HT29 (colon carcinoma); assay: MTT in vitro growth inhibition assay, HT29; type: cell-based; conditions: Homo sapiens; for inhibition at 25 µM: HT-29, 25 µM of drug, 72 h, read-out: Percentage of Cell Growth Inhibition HT29; for GI50: HT-29, 72 h drug exposure
Source text: (§1) With the desired bolinaquinone analogues 12–43 in hand, we examined their cytotoxicity against a panel of 11 tumour cell lines: HT29 (colon carcinoma), U87 and SJ-G2 (glioblastoma), MCF-7 (breast carcinoma), A2780 (ovarian carcinoma), H460 (lung carcinoma), A431 (skin carcinoma), Du145 (prostate carcinoma), BE2-C (neuroblastoma), MIA (pancreatic carcinoma), SMA (spontaneous murine astrocytoma) and a normal breast cell line (MCF10A). The inclusion of the MCF-10A cell line allowed a determination of a crude measure of relative toxicity while noting that the ultimate arbiter of toxicity requires in vivo evaluation. All analogues were initially screened at a 25 µM drug concentration.
(§2) Stock solutions were prepared as follows and stored at −20°C: drugs were stored as 40 mM solutions in DMSO. All cell lines were cultured in a humidified atmosphere 5% CO2 at 37°C. The cancer cell lines were maintained in Dulbecco's modified Eagle's medium (DMEM) (Trace Biosciences, Australia) supplemented with 10% fetal bovine serum, 10 mM sodium bicarbonate, penicillin (100 IU ml^−1), streptomycin (100 µg ml^−1) and glutamine (4 mM). The non-cancer MCF10A cell line was cultured in DMEM:F12 (1 : 1) cell culture media, 5% heat-inactivated horse serum, supplemented with penicillin (50 IU ml^−1), streptomycin (50 µg ml^−1), 20 mM Hepes, L-glutamine (2 mM), epidermal growth factor (20 ng ml^−1), hydrocortisone (500 ng ml^−1), cholera toxin (100 ng ml^−1) and insulin (10 ug ml^−1).
(§3) Cells in logarithmic growth were transferred to 96-well plates. Cytotoxicity was determined by plating cells in duplicate in 100 µl medium at a density of 2500–4000 cells per well. On day 0 (24 h after plating), when the cells were in logarithmic growth, 100 μl of medium with or without the test agent was added to each well. After 72 h, drug exposure growth inhibitory effects were evaluated using the MTT (3-[4,5-dimethylthiazol-2-yl]-2,5-diphenyl-tetrazolium bromide) assay and the absorbance read at 540 nm. Percentage growth inhibition was determined at a fixed drug concentration of 25 µM. A value of 100% is indicative of complete cell growth inhibition. Those analogues showing appreciable percentage growth inhibition underwent further dose–response analysis allowing for the calculation of a GI50 value. This value is the drug concentration at which cell growth is 50% inhibited based on the difference between the optical density values on day 0 and those at the end of drug exposure.

[2] = test system: U87 (glioblastoma); assay: MTT in vitro growth inhibition assay, U87; type: cell-based; conditions: for inhibition at 25 µM: 25 µM of drug, 72 h, read-out: Percentage of Cell Growth Inhibition U87
Source text: as §1, §2, §3

[3] = test system: MCF-7 (breast carcinoma); assay: MTT in vitro growth inhibition assay, MCF-7; type: cell-based; conditions: Homo sapiens; for inhibition at 25 µM: MCF7, 25 µM of drug, 72 h, read-out: Percentage of Cell Growth Inhibition MCF-7; for GI50: MCF7, 72 h drug exposure
Source text: as §1, §2, §3

[4] = test system: A2780 (ovarian carcinoma); assay: MTT in vitro growth inhibition assay, A2780; type: cell-based; conditions: Homo sapiens; for inhibition at 25 µM: 25 µM of drug, 72 h, read-out: Percentage of Cell Growth Inhibition A2780; for GI50: 72 h drug exposure
Source text: as §1, §2, §3

[5] = test system: H460 (lung carcinoma); assay: MTT in vitro growth inhibition assay, H460; type: cell-based; conditions: Homo sapiens; for inhibition at 25 µM: NCI-H460, 25 µM of drug, 72 h, read-out: Percentage of Cell Growth Inhibition H460
Source text: as §1, §2, §3

[6] = test system: A431 (skin carcinoma); assay: MTT in vitro growth inhibition assay, A431; type: cell-based; conditions: Homo sapiens; for inhibition at 25 µM: A-431, 25 µM of drug, 72 h, read-out: Percentage of Cell Growth Inhibition A431; for GI50: A-431, 72 h, 72 h drug exposure
Source text: as §1, §2, §3

[7] = test system: Du145 (prostate carcinoma); assay: MTT in vitro growth inhibition assay, Du145; type: cell-based; conditions: Homo sapiens; for inhibition at 25 µM: DU-145, 25 µM of drug, 72 h, read-out: Percentage of Cell Growth Inhibition Du145
Source text: as §1, §2, §3

[8] = test system: BE2-C (neuroblastoma); assay: MTT in vitro growth inhibition assay, BE2-C; type: cell-based; conditions: Homo sapiens, BE(2)-C, 72 h; for inhibition at 25 µM: 25 µM of drug, read-out: Percentage of Cell Growth Inhibition BE2-C; for GI50: 72 h drug exposure
Source text: as §1, §2, §3

[9] = test system: SJ-G2 (glioblastoma); assay: MTT in vitro growth inhibition assay, SJ-G2; type: cell-based; conditions: for inhibition at 25 µM: 25 µM of drug, 72 h, read-out: Percentage of Cell Growth Inhibition SJ-G2; for GI50: 72 h drug exposure
Source text: as §1, §2, §3

[10] = test system: MIA (pancreatic carcinoma); assay: MTT in vitro growth inhibition assay, MIA; type: cell-based; conditions: for inhibition at 25 µM: 25 µM of drug, 72 h, read-out: Percentage of Cell Growth Inhibition MIA; for GI50: 72 h drug exposure
Source text: as §1, §2, §3

[11] = test system: SMA (spontaneous murine astrocytoma); assay: MTT in vitro growth inhibition assay, SMA; type: cell-based; conditions: Mus musculus; for inhibition at 25 µM: 25 µM of drug, 72 h, read-out: Percentage of Cell Growth Inhibition SMA; for GI50: 72 h drug exposure
Source text: as §1, §2, §3

[12] = test system: MCF10A (normal breast cell line); assay: MTT in vitro growth inhibition assay, MCF10A; type: cell-based; conditions: Homo sapiens, MCF-10A; for inhibition at 25 µM: 25 µM of drug, 72 h, read-out: Percentage of Cell Growth Inhibition MCF10A; for GI50: normal breast cell line, 72 h drug exposure
Source text: as §1, §2, §3

| SMILES | inhibition at 25 µM [1] [%] | inhibition at 25 µM [2] [%] | inhibition at 25 µM [3] [%] | GI50 [3] [µM] | inhibition at 25 µM [4] [%] | GI50 [4] [µM] | inhibition at 25 µM [5] [%] | inhibition at 25 µM [6] [%] | inhibition at 25 µM [7] [%] | inhibition at 25 µM [8] [%] | GI50 [8] [µM] | inhibition at 25 µM [9] [%] | GI50 [9] [µM] | inhibition at 25 µM [10] [%] | inhibition at 25 µM [11] [%] | GI50 [11] [µM] | inhibition at 25 µM [12] [%] | GI50 [12] [µM] | GI50 [1] [µM] | melting point [°C] | further results |
| --- | --- | --- | --- | --- | --- | --- | --- | --- | --- | --- | --- | --- | --- | --- | --- | --- | --- | --- | --- | --- | --- |
| COC1=CC(=O)C(OC)=C(c2ccc(OC)cc2OC)C1=O [compound 20, 2,5-Dimethoxy-3-(2,4-dimethoxyphenyl)cyclohexa-2,5-diene-1,4-dione] | 15 ± 2 | 17 ± 3 | 20 ± 3 | 34 ± 3 | 48 ± 9 | 25 ± 3 | 10 ± 5 | 11 ± 4 | < 10 | > 100 | ~11 | 32 ± 6 | 31 ± 1.5 | < 10 | 35 ± 8 | 33 ± 3.5 | 14 ± 6 | 38 ± 5 | – | – | – |
| COC1=CC(=O)C(OC)=C(c2cccc3ccccc23)C1=O [compound 25, 2,5-dimethoxy-3-(naphthalene-1-yl)cyclohexa-2,5-diene-1,4-dione] | 16 ± 3 | 10 ± 2 | 28 ± 2 | 29 ± 2 | 66 ± 13 | 21 ± 1.3 | < 10 | 8 ± 3 | 10 ± 5 | > 100 | 8 ± 0.5 | 54 ± 19 | 22 ± 1.5 | 18 ± 4 | 77 ± 3 | 20 ± 1.3 | < 10 | – | 43 ± 5.5 | 134 to 137 | GI50 [6]: 47 ± 6.7 µM; GI50 [10]: 42 ± 3.5 µM |
| COC1=CC(=O)C(OC)=C(c2ccccc2-c2ccccc2)C1=O [compound 29, 3-Biphenyl-2-yl-2,5-dimethoxycyclohexa-2,5-diene-1,4-dione] | 15 ± 1 | 14 ± 4 | 27 ± 5 | 28 ± 2.6 | 77 ± 5 | 17 ± 1.2 | 10 ± 4 | 14 ± 3 | 10 ± 2 | > 100 | 11 | 38 ± 9 | 31 ± 0.58 | < 10 | 72 ± 9 | 20 ± 1.7 | 21 ± 8 | 36 ± 3.8 | – | 186 to 188 | – |
| COC1=C(c2ccccc2)C(=O)C(OC)=C(c2ccccc2)C1=O [compound 30, 2,5-Dimethoxy-3,6-diphenylcyclohexa-2,5-diene-1,4-dione] | 73 ± 4 | 52 ± 5 | > 100 | 7 ± 0.98 | > 100 | 5.9 | 26 ± 8 | 59 ± 6 | 35 ± 5 | > 100 | 7 ± 0.1 | > 100 | 12 ± 0.9 | 63 ± 5 | > 100 | 6.2 ± 0.3 | > 100 | 8.9 ± 1.6 | 16 ± 1.2 | 150 to 152 | GI50 ([2]; 72 h drug exposure): 30 ± 1.8 µM; GI50 ([5]; NCI-H460, 72 h drug exposure): > 50 µM; GI50 [6]: > 50 µM; GI50 ([7]; DU-145, 72 h, 72 h drug exposure): > 50 µM; GI50 [10]: 20 ± 2 µM |
| CCCCc1ccc(C2=C(OC)C(=O)C(c3ccc(CCCC)cc3)=C(OC)C2=O)cc1 [compound 31, 2,5-Bis(4-butylphenyl)-3,6-dimethoxycyclohexa-2,5-diene-1,4-dione] | 73 ± 3 | 53 ± 3 | 73 ± 5 | – | 55 ± 9 | – | 52 ± 9 | 75 ± 2 | 83 ± 2 | 68 ± 3 | – | 56 ± 6 | – | 72 ± 2 | 54 ± 4 | – | 66 ± 2 | – | – | 177 to 179 | – |
